Measurements reported in BindingDB's records for doi:10.1016/j.bmcl.2020.127533 (Glaxosmithkline, 2020).

Biological target: Methionine aminopeptidase 2 (Homo sapiens) (UniProt P50579)
Test: Inhibition of MetAP2 (unknown origin)

Chain of Methionine aminopeptidase 2 (Homo sapiens) (P50579 whole entry, looked up): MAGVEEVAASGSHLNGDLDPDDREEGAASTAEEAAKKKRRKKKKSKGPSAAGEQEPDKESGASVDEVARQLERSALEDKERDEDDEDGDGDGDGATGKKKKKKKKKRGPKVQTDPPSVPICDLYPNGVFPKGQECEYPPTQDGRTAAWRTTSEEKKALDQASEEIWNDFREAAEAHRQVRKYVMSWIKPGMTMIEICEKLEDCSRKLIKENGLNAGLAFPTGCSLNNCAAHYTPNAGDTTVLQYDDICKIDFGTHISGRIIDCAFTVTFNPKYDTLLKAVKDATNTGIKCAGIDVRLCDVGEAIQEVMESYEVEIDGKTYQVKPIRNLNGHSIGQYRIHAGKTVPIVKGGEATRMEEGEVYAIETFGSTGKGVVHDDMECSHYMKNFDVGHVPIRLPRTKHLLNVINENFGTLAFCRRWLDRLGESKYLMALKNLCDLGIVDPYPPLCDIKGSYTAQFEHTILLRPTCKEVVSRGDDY

SMILES	IC50
NC(=O)c1[nH]c2ccc(Cl)cc2c1-c1ccccc1	316 nM
CC(=O)c1[nH]c2ccc(Cl)cc2c1-c1ccccc1	1580 nM
O=C(O)c1[nH]c2ccc(Cl)cc2c1-c1ccccc1	20000 nM
NC(=O)c1[nH]c2c(Cl)cccc2c1-c1ccccc1	7940 nM
NC(=O)c1[nH]c2ccc(F)cc2c1-c1ccccc1	631 nM
NC(=O)c1[nH]c2ccccc2c1-c1ccccc1	2510 nM
NC(=O)c1[nH]c2cnccc2c1-c1ccccc1	6310 nM
NC(=O)c1[nH]c2ncc(Cl)cc2c1-c1ccccc1	1260 nM
NC(=O)c1[nH]c2ccc(Cl)c(F)c2c1-c1ccccc1	3980 nM
NC(=O)c1[nH]c2cc(F)c(Cl)cc2c1-c1ccccc1	63 nM
NC(=O)c1[nH]c2c(F)cc(Cl)cc2c1-c1ccccc1	631 nM
COc1ccccc1-c1c(C(N)=O)[nH]c2ccc(Cl)cc12	100 nM
Cc1ccccc1-c1c(C(N)=O)[nH]c2ccc(Cl)cc12	316 nM
NC(=O)c1[nH]c2ccc(Cl)cc2c1-c1ccccc1OC(F)(F)F	398 nM
CC(C)Oc1ccccc1-c1c(C(N)=O)[nH]c2ccc(Cl)cc12	25 nM
COc1ccccc1-c1c(C(N)=O)[nH]c2cc(F)c(Cl)cc12	6.3 nM
CC(C)Oc1ccccc1-c1c(C(N)=O)[nH]c2cc(F)c(Cl)cc12	5 nM
NC(=O)c1[nH]c2ccc(Cl)cc2c1-c1ccc(Cl)cc1	398 nM
COc1ccc(-c2c(C(N)=O)[nH]c3ccc(Cl)cc23)cc1	126 nM
CN(C)c1ccc(-c2c(C(N)=O)[nH]c3ccc(Cl)cc23)cc1	100 nM
N#Cc1ccc(-c2c(C(N)=O)[nH]c3ccc(Cl)cc23)cc1	501 nM
NC(=O)c1[nH]c2ccc(Cl)cc2c1-c1ccc(C(=O)N2CCCC2)cc1	251 nM
NC(=O)c1[nH]c2ccc(Cl)cc2c1-c1ccc(N2CCOCC2)cc1	50 nM
CN1CCN(c2ccc(-c3c(C(N)=O)[nH]c4ccc(Cl)cc34)cc2)CC1	25 nM
CN(C)Cc1ccc(-c2c(C(N)=O)[nH]c3ccc(Cl)cc23)cc1	1000 nM
NC(=O)c1[nH]c2ccc(Cl)cc2c1-c1ccc(-c2ccn[nH]2)cc1	251 nM
CC(C)Oc1cc(N2CCNCC2)ccc1-c1c(C(N)=O)[nH]c2cc(F)c(Cl)cc12	3.2 nM
CC(C)Oc1cc(N2CCNCC2)ccc1-c1c(C(N)=O)[nH]c2cc(F)c(F)cc12	2 nM
